SMILES strings stand for the structures. Calls of active or inactive are those of the source. The rule behind the calls is not given here.

A word on the IC50: it is the concentration that inhibits the measured activity by half. Read a low IC50 as greater potency.

The target in one experiment is Acetylcholinesterase (Electrophorus electricus, UniProt O42275).
Experiment [1] deals with Acetylcholinesterase (Electrophorus electricus) (UniProt O42275). Briefly: Mixed-type inhibition of electric eel AChE after 15 mins by Lineweaver-Burke plot analysis.
Acetylcholinesterase (Electrophorus electricus), sequence (O42275 24-633 limits assumed): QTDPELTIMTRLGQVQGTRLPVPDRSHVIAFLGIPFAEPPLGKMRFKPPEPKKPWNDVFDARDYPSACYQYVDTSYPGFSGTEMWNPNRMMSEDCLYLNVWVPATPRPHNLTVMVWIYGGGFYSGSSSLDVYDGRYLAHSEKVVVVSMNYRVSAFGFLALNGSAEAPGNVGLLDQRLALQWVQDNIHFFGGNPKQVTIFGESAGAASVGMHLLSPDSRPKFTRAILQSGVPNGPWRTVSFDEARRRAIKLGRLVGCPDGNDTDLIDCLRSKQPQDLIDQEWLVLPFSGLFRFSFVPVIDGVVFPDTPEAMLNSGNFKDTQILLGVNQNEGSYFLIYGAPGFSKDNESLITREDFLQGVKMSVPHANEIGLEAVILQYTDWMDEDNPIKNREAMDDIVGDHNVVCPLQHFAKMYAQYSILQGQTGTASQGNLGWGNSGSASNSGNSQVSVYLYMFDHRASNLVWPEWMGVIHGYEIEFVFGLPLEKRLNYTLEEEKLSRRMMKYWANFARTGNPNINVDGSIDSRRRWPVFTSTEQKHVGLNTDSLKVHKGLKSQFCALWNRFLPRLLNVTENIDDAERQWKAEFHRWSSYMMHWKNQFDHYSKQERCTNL

Acetylcholinesterase, sequence (O42275 whole entry): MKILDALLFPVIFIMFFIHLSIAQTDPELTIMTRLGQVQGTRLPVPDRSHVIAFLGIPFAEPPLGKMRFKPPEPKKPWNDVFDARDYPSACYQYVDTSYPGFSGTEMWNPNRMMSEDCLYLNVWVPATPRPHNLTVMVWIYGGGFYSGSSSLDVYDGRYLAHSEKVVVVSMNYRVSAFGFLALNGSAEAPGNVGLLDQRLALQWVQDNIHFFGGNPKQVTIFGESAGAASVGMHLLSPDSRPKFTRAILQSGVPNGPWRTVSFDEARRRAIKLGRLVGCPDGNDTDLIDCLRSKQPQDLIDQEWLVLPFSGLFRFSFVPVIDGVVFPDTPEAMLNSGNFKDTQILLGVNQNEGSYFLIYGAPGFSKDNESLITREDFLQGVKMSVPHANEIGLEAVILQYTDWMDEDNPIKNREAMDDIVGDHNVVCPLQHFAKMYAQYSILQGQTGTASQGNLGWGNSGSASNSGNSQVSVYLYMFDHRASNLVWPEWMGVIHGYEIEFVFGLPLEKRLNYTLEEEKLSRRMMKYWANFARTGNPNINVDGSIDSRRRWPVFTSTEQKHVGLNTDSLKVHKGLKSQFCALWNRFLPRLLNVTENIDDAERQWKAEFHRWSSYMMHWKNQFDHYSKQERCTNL

For the compound `COc1ccc2cc3[n+](cc2c1OCCCN1CCOCC1)CCc1cc2c(cc1-3)OCO2`, at Acetylcholinesterase, the IC50 was determined as 456 nM. This counts as sub-micromolar.
The compound `COc1ccc2cc3[n+](cc2c1OCCN1CCOCC1)CCc1cc2c(cc1-3)OCO2` showed an IC50 on Acetylcholinesterase of 1800 nM.
Compound `CCN(CC)CCCOc1c(OC)ccc2cc3[n+](cc12)CCc1cc2c(cc1-3)OCO2` registered a concentration for half-maximal inhibition (IC50) at Acetylcholinesterase of 105 nM.
In turn, `COc1ccc2cc3[n+](cc2c1OCCCNC1CCCCC1)CCc1cc2c(cc1-3)OCO2` yielded an IC50 at Acetylcholinesterase of 20 nM. Also, the inhibition result in experiment [1] was “Active”.
On to `COc1ccc2cc3[n+](cc2c1OCCN(C)C)CCc1cc2c(cc1-3)OCO2`, for which the midpoint of inhibition on Acetylcholinesterase, the IC50, lay at 1740 nM. This lies in the single-digit micromolar range.
Same read-out and setting: under `COc1ccc2cc3[n+](cc2c1OCCCN(C)C)CCc1cc2c(cc1-3)OCO2` stands 201 nM; under `COc1ccc2cc3[n+](cc2c1OCCCO)CCc1cc2c(cc1-3)OCO2`, 2370 nM; under `COc1ccc2cc3[n+](cc2c1OCCCN1CCCC1)CCc1cc2c(cc1-3)OCO2`, 93 nM.
On Acetylcholinesterase, `CCCN(CCC)CCCOc1c(OC)ccc2cc3[n+](cc12)CCc1cc2c(cc1-3)OCO2` yielded an IC50 of 310 nM. Against the preceding compound, the IC50 is about 3.3-fold higher.
In the case of `COc1ccc2cc3[n+](cc2c1OCCCN1CCCCC1)CCc1cc2c(cc1-3)OCO2`, it took 52 nM to reach half-maximal inhibition against Acetylcholinesterase (IC50).

(Values after ChEMBL document CHEMBL1268919, “Berberine derivatives, with substituted amino groups linked at the 9-position, as inhibitors of acetylcholinesterase/butyrylcholinesterase” (Bioorg Med Chem Lett, 2010).)
